This note sets out measurements from patent US20210369664A1, “PROPHYLACTIC OR THERAPEUTIC AGENT FOR PULMONARY HYPERTENSION WHICH COMPRISES PPAR? AGONIST” (TOHOKU UNIVERSITY, priority 2016, published 2021).

Data set [1] can be described thus: Average body weight of the administration groups in the hypoxia test. The data set is classed as in vivo. The protocol: After the hypoxic stimulation for 3 weeks, a 1.2-Fr catheter (SciSense Inc., Ontario, Canada) was inserted in the jugular vein of the mice under isoflurane anesthesia and advanced into the right ventricle to measure a right ventricular systolic pressure. In addition, after the measurement of the right ventricular systolic pressure, the heart and the lungs were dissected. For the heart, the right ventricle and the left ventricle were separated and their weight ratio was measured to assess right ventricular hypertrophy. The average body weights of the Control group (PPARα agonist: −, Hypoxia [3 wks]: −), the Vehicle group (PPARα agonist: −, Hypoxia [3 wks]: +), and the WY-14643 administration group (PPARα agonist: +, Hypoxia [3 wks]: +) before the test were 29.2±1.2 g, 28.9±1.0 g, and 29.6±1.4 g, respectively. In addition, the average body weights of the Control group, the Vehicle group, and the WY-14643 administration group after the test were 32.1±2.1 g, 23.5±1.8 g, and 25.7±2.0 g, respectively.

Data set [2] has as its system hypoxia-induced pulmonary hypertension mice. Particulars: WY-14643 3 mg/kg/day by mixed feed. As to the method: Hypoxia-induced pulmonary hypertension mice serving as a model generally used in an animal experiment for pulmonary hypertension were administered a PPARα agonist (WY-14643, Sigma) at 3 mg/kg/day by mixed feed. Specifically, first, 8-week-old male wild-type mice (Balb/c mice, n=12 per group) were housed in a transparent acrylic box with an oxygen concentration controlled to 10% using a hypoxia generator (Teijin Limited, Japan) under a 12 h light and dark cycle. The mice were stimulated by hypoxia for 3 weeks, and a diet in this period was mixed with WY-14643 (the following solution was used as WY-14643: 1 mg of WY-14643 was dissolved in 0.1 ml of DMSO, and the solution of WY-14643 in DMSO was mixed with ultrapure water (mQ or ultrapure water) to prepare a 100 ml solution). The administration by mixed feed was performed at 3 mg/kg/day according to the previous report (Andrew D, et al. Hepatology. 2012; 56: 281-290). […] The following tests were also performed as controls: a test in which the mice were stimulated by hypoxia in the same manner as described above except that the mice were administered a 1:1,000 (V/V) mixed solution of DMSO and ultrapure water by mixed feed in place of WY-14643 as a diet; and a test in which the mice were administered the mixed solution of DMSO and ultrapure water by mixed feed in place of WY-14643 as a diet and were not stimulated by hypoxia.
After the hypoxic stimulation for 3 weeks, a 1.2-Fr catheter (SciSense Inc., Ontario, Canada) was inserted in the jugular vein of the mice under isoflurane anesthesia and advanced into the right ventricle to measure a right ventricular systolic pressure. In addition, after the measurement of the right ventricular systolic pressure, the heart and the lungs were dissected. For the heart, the right ventricle and the left ventricle were separated and their weight ratio was measured to assess right ventricular hypertrophy.
In addition, in tissue slides of the formalin-fixed lungs of each group, the number of pulmonary vessels including thrombi was counted for a field of about 100 mm^2, and the number of the pulmonary vessels including thrombi per 100 mm^2 was calculated. […] The resultant plasma sample was measured for its D-dimer concentration in plasma (unit: ng/ml) through the use of an ELISA kit (CEA506Mu manufactured by Life Science Inc.) according to the instruction of the kit. In addition, the plasma sample was measured for its thrombin-antithrombin complex (TAT) concentration in plasma (unit: pg/ml) through the use of an ELISA kit (SEA831Mu manufactured by Life Science Inc.) according to the instruction of the kit.
The dissected lungs were fixed with 10% formalin for 24 hours, and then 3 μm sections of the specimens were used to prepare slides. The slides were subjected to Elastica-Masson staining for staining elastic fiber in order to assess vessel wall thickening (remodeling). 60 to 80 distal pulmonary arteries having diameters of from 20 μm to 70 μm were observed per mouse, and their wall thickening was divided into 3 stages.

In the case of `Cc1cccc(Nc2cc(Cl)nc(SCC(=O)O)n2)c1C` [WY-14643, [[4-chloro-6-[(2,3-dimethylphenyl)amino]pyrimidin-2-yl]thio]acetic acid], the “average body weight after the test” value in data set [1] (WY-14643 administration group, 3 mg/kg/day, after 3 weeks hypoxia, Example 1) was 25.7 ± 2.0 g. Further, the “thrombus formation (number of pulmonary vessels including thrombi per 100 mm^2)” value in data set [2] (chronic hypoxic stimulation 3 weeks, lung tissue slides (FIG. 2)) is reported as “suppressed the increase in thrombus formation”. In addition, the “pulmonary hypertension (overall result)” value in data set [2] (hypoxia 3 weeks) is “ameliorated pulmonary hypertension”. Moreover, the “remodeling of distal pulmonary vessels (Elastica-Masson staining)” value in data set [2] (hypoxia 3 weeks (FIG. 3)) is reported as “significant reduction”. In data set [2] (hypoxia 3 weeks, Balb/c mice (FIG. 1)), the “right ventricular hypertrophy (right ventricle/(left ventricle plus septum) weight ratio)” value is reported as “Significant reductions”. For the same molecule, in data set [2] (hypoxia 3 weeks, plasma, ELISA (FIG. 2)), the “D-dimer/TAT ratio (indicator of impaired fibrinolytic capacity)” value was “its reduction was found”. Besides, in data set [2] (hypoxia (10% oxygen) 3 weeks, Balb/c mice, vs vehicle (FIG. 1)), the “right ventricular systolic pressure” value is reported as “Significant reductions”.

Turning to `CC(C)OC(=O)C(C)(C)Oc1ccc(C(=O)c2ccc(Cl)cc2)cc1` [fenofibrate, isopropyl 2-[4-(4-chlorobenzoyl)phenoxy]-2-methylpropionate], the “average body weight after the test” value in data set [1] (fenofibrate administration group, 50 mg/kg/day, Example 3) is 334.30 ± 20.67 g.
